# Experimental data from patent US12391706B2, “Multi-target tyrosine kinase inhibitor” (SHENZHEN NEPTUNUS PHARMACEUTICAL RESEARCH INSTITUTE CO., …, priority 2020, dated 2025).
# What was measured:
# [1] = system: MKN-45 gastric cancer cells; assay: Gastric cancer cell MKN45 xenograft model; type: in vivo, nude mice; conditions: oral 100 mg·kg^−1 once a day for 14 days
# From the text: • 1. Compounds (td32-4, td32-4P3, td32-4P6, td32-4P9, td32-4P10) were selected for in vivo activity evaluation at a single concentration. The animal model was gastric cancer cell MKN45 xenograft model.
# (§1) Test method: 5×10^6 MKN-45 gastric cancer cells were inoculated under the fat pad of the right rib of nude mice, and the tumor formation was observed. Two weeks after the inoculation, the tumor-bearing mice were divided into groups and orally administered with td32-4, td32-4P3, td32-4P6, td32-4P9, and td32-4P10 at a dose of 100 mg·kg^−1, once a day for 14 days, respectively. Tumor volumes were measured with a caliper and recorded.
# [2] = Solubility test (water), Chinese Pharmacopoeia 2015; type: physicochemical; conditions: 25° C.±2° C., dissolution within 30 minutes
# Description: The series of compounds synthesized in Examples 1-24 were subjected to solubility test (water), according to the solubility test methods in Chinese Pharmacopoeia, 2015 Edition. The specific test operations and evaluation criteria are as follows: An appropriate amount (1 mg-10 mg) of finely powdered compound was weighed, placed in a certain volume of solvent at 25° C.±2° C., and shaken vigorously for 30 seconds every 5 minutes; the dissolution within 30 minutes was observed. It was considered completely dissolved if there were no visible particles or droplets of the solute. [table]
# [3] = In vivo transformation / pharmacokinetic study in SD rats; conditions: for time to almost complete conversion into td32-4 in vivo: oral 200 mg·kg^−1
# From the text: The compounds of the present invention have improved solubility by introducing a hydrophilic functional group into the structure of td32-4 through an ester bond. After oral administration, the compounds need to be converted into td32-4 in the physical and chemical environment in vivo to exert pharmacological effects. In this example, some representative compounds were selected for in vivo pharmacokinetic studies in SD rats, and compared with direct oral administration of td32-4. The experiment was performed at high (200 mg·kg^−1) and low (10 mg·kg^−1) doses. 5 mg of the test sample was placed into a glass bottle. 1 mL of DMA (dimethylacetamide) was added and vortexed to dissolve the solid completely. 1.5 mL of PEG400 was added, vortexed and mixed well. 2.5 mL of physiological saline for injection was added, vortexed, mixed well. The mixture was filtered with a filter membrane (PALL, Nylon, 0.45 μm) to obtain a colorless and clear solution. The test sample was administered to experimental animals (n=3) by tail vein injection at a dose of 5 mg·kg^−1 (1 mg·mL^−1). An appropriate amount of the test sample was placed into a glass bottle. PEG400 was added, vortexed and mixed well. The mixture was sonicated to obtain a clear solution. The test sample was administered to experimental animals (n=3) by gavage at a dose of 10 mg·kg^−1 and 200 mg·kg^−1, respectively. SD rats were weighed before administration, and the dose was calculated according to the body weight. They were administered by intravenous injection or by gavage. Blood was collected through the submandibular vein or other suitable ways, at intervals of 0, 0.083, 0.25, 0.5, 1, 2, 4, 8, 12, 24 hours. About 0.20 mL of each sample was collected, anticoagulated with EDTA-K2, and placed on ice after collection, and centrifuged within 1 hour to separate plasma (centrifugation conditions: 6800 g, 6 minutes, 2-8° C.). Plasma samples were stored in a −80° C. freezer prior to analysis. The blood drug concentration of each sample was analyzed using LC-MS/MS. […]
# MV-4-11 = MV-4-11 nude mouse xenograft model; type: in vivo; conditions: MV-4-11 xenograft, 50 mg/kg * 21 d, i.g, QD
# Description: as §1
# (§2) The compound td32-4P10 was selected for in vivo activity evaluation. The tumor inhibitory activity data of td32-4P10 were tested in MV-4-11, H358 and H82 nude mouse xenograft model, respectively. Meanwhile, the changes in tumor volume during the treatment, and the changes in body weight of the nude mice induced by the drug during the treatment were measured. After the treatment, the tumor weights were counted. The tumor anatomical images after the treatment were recorded.
# H82 = H82 nude mouse xenograft model; type: in vivo; conditions: 50 mg/kg * 14 d, i.g, QD
# Description: as §1, §2
# H358 = H358 nude mouse xenograft model; type: in vivo; conditions: 50 mg/kg * 21 d, i.g, QD
# Description: as §1, §2
# [4] = low dose (10 mg·kg^−1), solution; cited from earlier work
# [5] = system: multiple tumor cell models; conditions: cited from earlier work
# [6] = cited from earlier work
# c-Kit = c-Kit (Homo sapiens, UniProt P10721); conditions: cited from earlier work
# VEGFR = conditions: cited from earlier work
# c-Met = c-Met (Homo sapiens, UniProt P08581); conditions: cited from earlier work
# c-Met, sequence (P08581 25-1390): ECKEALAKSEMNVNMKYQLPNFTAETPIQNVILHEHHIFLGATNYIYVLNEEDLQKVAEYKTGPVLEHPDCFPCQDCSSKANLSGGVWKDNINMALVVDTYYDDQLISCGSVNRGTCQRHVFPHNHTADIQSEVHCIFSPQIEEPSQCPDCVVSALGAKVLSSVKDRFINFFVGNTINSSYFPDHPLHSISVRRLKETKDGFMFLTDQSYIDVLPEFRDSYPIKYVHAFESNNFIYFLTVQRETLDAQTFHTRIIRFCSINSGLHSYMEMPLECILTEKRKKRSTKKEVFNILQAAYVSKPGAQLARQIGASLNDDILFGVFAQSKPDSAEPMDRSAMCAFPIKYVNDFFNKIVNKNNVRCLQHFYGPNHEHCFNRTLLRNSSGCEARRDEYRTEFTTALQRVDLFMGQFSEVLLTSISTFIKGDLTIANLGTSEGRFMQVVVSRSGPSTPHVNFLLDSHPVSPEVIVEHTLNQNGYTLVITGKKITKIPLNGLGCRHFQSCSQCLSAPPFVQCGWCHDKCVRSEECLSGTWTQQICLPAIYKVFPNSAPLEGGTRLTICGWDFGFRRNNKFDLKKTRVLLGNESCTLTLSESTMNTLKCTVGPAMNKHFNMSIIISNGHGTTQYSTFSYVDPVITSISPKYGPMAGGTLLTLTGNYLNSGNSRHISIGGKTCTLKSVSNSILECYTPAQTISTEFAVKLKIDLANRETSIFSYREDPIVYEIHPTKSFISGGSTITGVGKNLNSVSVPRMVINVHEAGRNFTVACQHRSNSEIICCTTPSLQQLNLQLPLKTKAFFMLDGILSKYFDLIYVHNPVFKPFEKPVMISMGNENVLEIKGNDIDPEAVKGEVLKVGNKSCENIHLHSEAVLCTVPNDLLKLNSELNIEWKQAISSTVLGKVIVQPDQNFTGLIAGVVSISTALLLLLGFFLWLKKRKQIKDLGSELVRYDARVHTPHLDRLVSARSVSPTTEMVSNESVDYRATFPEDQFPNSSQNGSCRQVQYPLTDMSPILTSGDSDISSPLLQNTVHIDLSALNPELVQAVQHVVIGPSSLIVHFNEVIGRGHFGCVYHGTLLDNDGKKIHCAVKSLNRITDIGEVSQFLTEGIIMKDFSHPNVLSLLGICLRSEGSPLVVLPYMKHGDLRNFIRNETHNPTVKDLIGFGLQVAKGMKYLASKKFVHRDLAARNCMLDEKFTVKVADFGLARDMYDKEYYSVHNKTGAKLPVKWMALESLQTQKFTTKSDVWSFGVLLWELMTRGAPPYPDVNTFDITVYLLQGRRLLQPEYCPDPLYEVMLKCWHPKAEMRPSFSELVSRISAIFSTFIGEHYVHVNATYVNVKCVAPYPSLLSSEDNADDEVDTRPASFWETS
# c-Kit, sequence (P10721 26-976): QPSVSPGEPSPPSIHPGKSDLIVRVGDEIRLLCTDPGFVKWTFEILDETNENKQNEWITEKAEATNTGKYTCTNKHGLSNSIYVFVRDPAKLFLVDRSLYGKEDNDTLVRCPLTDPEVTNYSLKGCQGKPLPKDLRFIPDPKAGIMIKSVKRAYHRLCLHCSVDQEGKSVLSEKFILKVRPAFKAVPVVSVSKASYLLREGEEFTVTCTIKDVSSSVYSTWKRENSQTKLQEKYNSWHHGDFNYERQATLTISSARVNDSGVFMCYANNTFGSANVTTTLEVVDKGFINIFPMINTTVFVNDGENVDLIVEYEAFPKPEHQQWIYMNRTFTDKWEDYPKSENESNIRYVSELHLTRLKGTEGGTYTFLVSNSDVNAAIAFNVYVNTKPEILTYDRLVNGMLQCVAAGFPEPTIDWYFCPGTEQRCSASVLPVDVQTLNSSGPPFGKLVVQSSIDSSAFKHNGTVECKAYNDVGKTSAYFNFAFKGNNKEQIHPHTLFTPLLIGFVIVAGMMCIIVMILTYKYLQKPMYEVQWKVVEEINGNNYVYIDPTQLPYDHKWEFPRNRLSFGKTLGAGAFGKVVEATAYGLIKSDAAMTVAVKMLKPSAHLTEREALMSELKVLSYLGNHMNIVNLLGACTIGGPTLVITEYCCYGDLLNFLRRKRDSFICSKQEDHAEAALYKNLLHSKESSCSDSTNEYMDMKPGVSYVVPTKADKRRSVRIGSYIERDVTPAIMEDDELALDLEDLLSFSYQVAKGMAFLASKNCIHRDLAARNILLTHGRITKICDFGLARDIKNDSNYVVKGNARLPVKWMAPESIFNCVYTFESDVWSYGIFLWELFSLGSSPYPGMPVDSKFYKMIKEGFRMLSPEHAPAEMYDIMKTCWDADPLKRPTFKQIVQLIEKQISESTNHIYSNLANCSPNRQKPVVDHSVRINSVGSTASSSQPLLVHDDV
conversion into td32-4 in vivo ([3]; oral 10 mg·kg^−1),time to almost complete conversion into td32-4 in vivo [3] [h],Structure (SMILES),tumor inhibitory effect (tumor volume) [1],Water solubility test Result [2],T/C (%) (MV-4-11),TGI (%) (MV-4-11),T/C (%) (H82),TGI (%) (H82),T/C (%) (H358),TGI (%) (H358),oral bioavailability F [4] [%],anti-proliferative activity [5],water solubility [6],inhibitory activity (c-Kit),inhibitory activity (VEGFR),inhibitory activity (c-Met)
rapidly converted,≤ 18,"CN(C)CC(=O)OCCn1cc(-c2cc3nccc(Oc4ccc(NC(=O)C5(C(=O)Nc6ccc(F)cc6)CC5)cc4F)c3s2)cn1 [td32-4P3, 2-(4-(7-(2-fluoro-4-(1-((4-fluorophenyl)carbamoyl)cyclopropane-1-carboxamide)phenoxy)thieno[3,2-b]pyridin-2-yl)-1H-pyrazolyl-1-yl)ethyldimethyl glycinate]",potent tumor inhibitory effect,C (1 g of solute is soluble in 10~30 mL of sovent),–,–,–,–,–,–,–,–,–,–,–,–
–,≤ 18,"CC(C)C(N)C(=O)OCCn1cc(-c2cc3nccc(Oc4ccc(NC(=O)C5(C(=O)Nc6ccc(F)cc6)CC5)cc4F)c3s2)cn1 (stereo not drawn) [td32-4P10, 2-(4-(7-(2-fluoro-4-(1-((4-fluorophenyl)carbamoyl)cyclopropane-1-carboxamide)phenoxy)thieno[3,2-b]pyridin-2-yl)-1H-pyrazolyl-1-yl)ethyl valinate]",potent tumor inhibitory effect,C (1 g of solute is soluble in 10~30 mL of sovent),3.4,109,11,92,6.6,112,–,–,–,–,–,–
–,–,O=C(Nc1ccc(F)cc1)C1(C(=O)Nc2ccc(Oc3ccnc4cc(-c5cnn(CCO)c5)sc34)c(F)c2)CC1 [td32-4],did not show significant activity,G (1 g of solute is insoluble in 10000 mL of solvent),–,–,–,–,–,–,71.6,potent anti-proliferative activity,extremely poor water solubility,potent inhibitory activity,potent inhibitory activity,potent inhibitory activity
